Experimental data as given in patent US20220291235A1, “ACOUSTO-THERMAL SHIFT ASSAY FOR LABEL-FREE PROTEIN ANALYSIS” (THE REGENTS OF THE UNIVERSITY OF COLORADO - A BODY CORPORATE, priority 2019, published 2022).

How the values were obtained:
[1] = biological target: T1, citrate synthase (CS) from porcine heart (Sus scrofa, UniProt P00889); test: Acousto-thermal shift assay (A-TSA), CS-OAA binding; conditions: same SAW actuation (19.6 MHz, 3 Watts), CS 15 μM
T1 construct: citrate synthase (CS) from porcine heart (Millipore Sigma); purchased Millipore Sigma; host or cells: porcine heart
T1 sequence (P00889 28-464): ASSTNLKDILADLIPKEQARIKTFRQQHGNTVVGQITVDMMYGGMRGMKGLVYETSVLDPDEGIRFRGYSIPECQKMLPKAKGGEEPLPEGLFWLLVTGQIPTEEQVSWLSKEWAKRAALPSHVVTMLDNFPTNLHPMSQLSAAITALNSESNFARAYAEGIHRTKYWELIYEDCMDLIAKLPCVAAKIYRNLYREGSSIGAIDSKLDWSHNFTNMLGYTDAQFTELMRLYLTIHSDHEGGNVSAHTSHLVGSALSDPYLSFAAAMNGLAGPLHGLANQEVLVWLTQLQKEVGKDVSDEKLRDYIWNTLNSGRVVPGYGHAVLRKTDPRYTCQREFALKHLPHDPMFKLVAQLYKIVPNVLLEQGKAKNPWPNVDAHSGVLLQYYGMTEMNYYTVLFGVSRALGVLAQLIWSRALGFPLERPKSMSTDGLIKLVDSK
From the text: (§1) Specifically, two identical SAWs were generated by applying an AC (alternating current) signal to a pair of interdigital transducers (IDTs) deposited on the surface of a lithium niobate piezoelectric substrate. A standing SAW was formed within a 1×10 mm^2 polydimethylsiloxane (PDMS) microchannel. The microchannel was bonded on top of a substrate between these two IDTs. See, FIGS. 4A(i) and FIG. 4B. […] Most proteins rapidly precipitate and aggregate after their unfolding. See, FIG. 4A(ii).
(§2) Simultaneously, the standing SAW aggregates and concentrates precipitated protein along the acoustic pressure nodes and/or antinodes. See, FIG. 4A(iii). Gray intensity (Im) of the precipitated and aggregated proteins was analyzed and plotted as a function of SAW time, giving rise to a sigmoidal melting curve. See, FIG. 4A(iv). The melting time (Tm) was determined as the time point when half of proteins were unfolded (i.e. herein, a 50% change of gray intensity occurs where Im=(Imax+Imin)/2.). Using this simple analysis, the time shift Δτm between between two samples can be measured at a given SAW power and analyzed to compare conditions or ligands that stabilize or destabilize proteins. Overall, this new technique provides a rapid, simple and efficient workflow for analysis of changes in apparent melting curves. […]

[2] = biological target: T1, citrate synthase (CS) from porcine heart; test: Conventional thermal shift assay, SYPRO DSF assay (DSF-TSA), CS-OAA binding; conditions: OAA present
Experimental: In some embodiments, SAW-driven protein unfolding and concentration can be used for analysis of protein-ligand binding to analyze the melting temperature (Tm) and its shift (Δtm) upon protein-ligand binding. Gray intensity of the precipitated and concentrated proteins was measured and plotted as a function of SAW time in A-TSA. See, FIG. 5A. Two control conventional TSA methods were performed in parallel measuring the data using either a differential scanning fluorimetry (DSF) assay or a bicinchoninic acid (BCA) assay. DSF, the most popular C-TSA method, utilizes dye fluorescence as a measure of protein unfolding. Matulis et al., “Thermodynamic stability of carbonic anhydrase: measurements of binding affinity and stoichiometry using ThermoFluor” J. Biochemistry 44:5258-5266 (2005). On the other hand, BCA quantifies the amount of remaining soluble proteins after thermal unfolding. Brown et al., “Protein measurement using bicinchoninic acid: elimination of interfering substances” Anal. Biochem. 180:136-139 (1989).
SYPRO DSF assay: SYPRO Orange melting curves were collected using the 7900HT Fast Real-Time PCR System. […] To analyze melting curves, the fluorescence was normalized to the starting temperature and to no protein controls. The data was then scaled to interval (0,1) and then the replicates were averaged, and standard deviation calculated.

[3] = biological target: T1, citrate synthase (CS) from porcine heart; test: Conventional thermal shift assay, BCA assay (BCA-TSA), CS-OAA binding
Experimental: (§3) In some embodiments, SAW-driven protein unfolding and concentration can be used for analysis of protein-ligand binding to analyze the melting temperature (Tm) and its shift (Δtm) upon protein-ligand binding. Gray intensity of the precipitated and concentrated proteins was measured and plotted as a function of SAW time in A-TSA. See, FIG. 5A. Two control conventional TSA methods were performed in parallel measuring the data using either a differential scanning fluorimetry (DSF) assay or a bicinchoninic acid (BCA) assay. DSF, the most popular C-TSA method, utilizes dye fluorescence as a measure of protein unfolding. Matulis et al., “Thermodynamic stability of carbonic anhydrase: measurements of binding affinity and stoichiometry using ThermoFluor” J. Biochemistry 44:5258-5266 (2005). On the other hand, BCA quantifies the amount of remaining soluble proteins after thermal unfolding. Brown et al., “Protein measurement using bicinchoninic acid: elimination of interfering substances” Anal. Biochem. 180:136-139 (1989). BCA assay: For thermal gradient profiling, a gradient program was created using a PTC-200 thermal cycler (MJ Research, Reno, N.V., USA) to cover the temperature points indicated in each figure. A PCR plate was prepared with 25 μL per well of recombinant protein or lysate and sealed (4titude Random Access, PN 4ti-0960/RA 96-well plate). […]

human hemoglobin (Hb) [4] = biological target: T2, human hemoglobin (Hb) (Homo sapiens, UniProt P68871+P69905); test: Acousto-thermal shift assay (A-TSA), Hb-Pal binding; conditions: SAW 19.6 MHz, 3 Watts, Hb 31 μM
T2 construct: purchased Millipore Sigma
From the text: as §1, §2

human hemoglobin (Hb) [5] = biological target: T2, human hemoglobin (Hb); test: Conventional thermal shift assay, BCA assay (BCA-TSA), Hb-Pal binding
Experimental: as §3

T2 sequence (P69905 2-142 limits assumed): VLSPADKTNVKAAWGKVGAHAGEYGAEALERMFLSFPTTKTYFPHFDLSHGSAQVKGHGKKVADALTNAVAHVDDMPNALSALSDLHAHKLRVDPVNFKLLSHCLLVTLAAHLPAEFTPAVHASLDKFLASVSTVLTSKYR
T2 sequence (P68871 2-147 limits assumed): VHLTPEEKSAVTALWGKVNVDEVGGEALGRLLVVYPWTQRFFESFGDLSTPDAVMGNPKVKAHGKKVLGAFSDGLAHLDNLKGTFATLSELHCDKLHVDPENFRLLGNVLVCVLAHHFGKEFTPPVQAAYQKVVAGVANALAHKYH

| SMILES | increase of tm of CS (36.23 s) upon ligand binding ([1]; 1 mM OAA) [s] | increase of tm of CS (36.23 s) upon ligand binding ([1]; 2 mM OAA) [s] | tm shift of CS as detected in DSF assay [2] | increase of Tm of CS (60.3° C.) upon ligand binding ([3]; 1 mM OAA) [°C] | increase of Tm of CS (60.3° C.) upon ligand binding ([3]; 2 mM OAA) [°C] | reduction of melting time (Tm) of Hb (46.85 s) upon ligand binding (human hemoglobin (Hb) [4]; 0.62 mM Pal) [s] | reduction of melting time (Tm) of Hb (46.85 s) upon ligand binding (human hemoglobin (Hb) [4]; 1.24 mM Pal) [s] | decrease of Tm of Hb (59.1° C.) upon ligand binding (human hemoglobin (Hb) [5]; 0.62 mM Pal) [°C] | decrease of Tm of Hb (59.1° C.) upon ligand binding (human hemoglobin (Hb) [5]; 1.24 mM Pal) [°C] |
| --- | --- | --- | --- | --- | --- | --- | --- | --- | --- |
| O=C(O)CC(=O)C(=O)O [OAA, oxaloacetic acid] | 10.45 | 15.77 | small and not statistically significant | 2.0 | 2.9 |  |  |  |  |
| COc1cc2c(cc1OC)-c1cc3ccc(OC)c(OC)c3c[n+]1CC2 [Pal, palmatine chloride] |  |  |  |  |  | 3.52 | 7.30 | 0.7 | 1.1 |
